# Where two headings read alike, the source gives them in different places.
# Target: PLpro from SARS-CoV-2 (Severe acute respiratory syndrome coronavirus 2, UniProt P0DTD1)
# Assay: biochemical
# Type: biochemical
compound,measurement,setting,value
"C[C@@H](NC(=O)c1ccccc1CCC(=O)NNC(=O)CCl)c1cccc2ccccc12 [Compound 9, (R)-2-(3-(2-(2-chloroacetyl)hydrazineyl)-3-oxopropyl)-N-(1-(naphthalen-1-yl)ethyl)benzamide]",kinact/KI,,110 M⁻¹ s⁻¹
same,remaining activity at 1 µM,"5 min, read-out: PLpro activity after preincubation, inhibitor 1 uM, preincubation 5 min",103%
same,remaining activity at 4 µM,"5 min, read-out: PLpro activity after preincubation, inhibitor 4 uM, preincubation 5 min",97.6%
same,remaining activity at 5 µM,"5 min, read-out: PLpro activity after preincubation, inhibitor 5 uM, preincubation 5 min",92.9%
same,remaining activity at 10 µM,"5 min, read-out: PLpro activity after preincubation, inhibitor 10 uM, preincubation 5 min",78.5%
same,remaining activity at 15 µM,"5 min, read-out: PLpro activity after preincubation, inhibitor 15 uM, preincubation 5 min",66.8%
same,remaining activity at 25 µM,"5 min, read-out: PLpro activity after preincubation, inhibitor 25 uM, preincubation 5 min",57.8%
same,remaining activity at 30 µM,"5 min, read-out: PLpro activity after preincubation, inhibitor 30 uM, preincubation 5 min",62%
same,remaining activity at 36 µM,"5 min, read-out: PLpro activity after preincubation, inhibitor 36 uM, preincubation 5 min",57.3%
same,remaining activity at 1 µM,"10 min, read-out: PLpro activity after preincubation, inhibitor 1 uM, preincubation 10 min",103%
same,remaining activity at 2 µM,"10 min, read-out: PLpro activity after preincubation, inhibitor 2 uM, preincubation 10 min",93.2%
same,remaining activity at 5 µM,"10 min, read-out: PLpro activity after preincubation, inhibitor 5 uM, preincubation 10 min",74%
same,remaining activity at 10 µM,"10 min, read-out: PLpro activity after preincubation, inhibitor 10 uM, preincubation 10 min",53.4%
same,remaining activity at 15 µM,"10 min, read-out: PLpro activity after preincubation, inhibitor 15 uM, preincubation 10 min",47.4%
same,remaining activity at 25 µM,"10 min, read-out: PLpro activity after preincubation, inhibitor 25 uM, preincubation 10 min",38.1%
same,remaining activity at 30 µM,"10 min, read-out: PLpro activity after preincubation, inhibitor 30 uM, preincubation 10 min",42.9%
same,remaining activity at 36 µM,"10 min, read-out: PLpro activity after preincubation, inhibitor 36 uM, preincubation 10 min",38.6%
same,remaining activity at 2 µM,"20 min, read-out: PLpro activity after preincubation, inhibitor 2 uM, preincubation 20 min",77.2%
same,remaining activity at 8 µM,"20 min, read-out: PLpro activity after preincubation, inhibitor 8 uM, preincubation 20 min",39.6%
same,remaining activity at 1 µM,"0.5 h, read-out: PLpro activity after preincubation, inhibitor 1 uM, preincubation 30 min",83.9%
same,remaining activity at 2 µM,"0.5 h, read-out: PLpro activity after preincubation, inhibitor 2 uM, preincubation 30 min",68.5%
same,remaining activity at 4 µM,"0.5 h, read-out: PLpro activity after preincubation, inhibitor 4 uM, preincubation 30 min",44.8%
same,remaining activity at 5 µM,"0.5 h, read-out: PLpro activity after preincubation, inhibitor 5 uM, preincubation 30 min",40.6%
same,remaining activity at 8 µM,"0.5 h, read-out: PLpro activity after preincubation, inhibitor 8 uM, preincubation 30 min",30.9%
same,remaining activity at 10 µM,"0.5 h, read-out: PLpro activity after preincubation, inhibitor 10 uM, preincubation 30 min",31.6%
same,remaining activity at 15 µM,"0.5 h, read-out: PLpro activity after preincubation, inhibitor 15 uM, preincubation 30 min",12.2%
same,remaining activity at 25 µM,"0.5 h, read-out: PLpro activity after preincubation, inhibitor 25 uM, preincubation 30 min",10.3%
same,remaining activity at 30 µM,"0.5 h, read-out: PLpro activity after preincubation, inhibitor 30 uM, preincubation 30 min",13.7%
same,remaining activity at 36 µM,"0.5 h, read-out: PLpro activity after preincubation, inhibitor 36 uM, preincubation 30 min",12.5%
same,remaining activity at 1 µM,"1 h, read-out: PLpro activity after preincubation, inhibitor 1 uM, preincubation 60 min",68.1%
same,remaining activity at 2 µM,"1 h, read-out: PLpro activity after preincubation, inhibitor 2 uM, preincubation 60 min",42.3%
same,remaining activity at 4 µM,"1 h, read-out: PLpro activity after preincubation, inhibitor 4 uM, preincubation 60 min",21.8%
same,remaining activity at 5 µM,"1 h, read-out: PLpro activity after preincubation, inhibitor 5 uM, preincubation 60 min",16.1%
same,remaining activity at 8 µM,"1 h, read-out: PLpro activity after preincubation, inhibitor 8 uM, preincubation 60 min",10.3%
same,remaining activity at 15 µM,"1 h, read-out: PLpro activity after preincubation, inhibitor 15 uM, preincubation 60 min",7.87%
same,remaining activity at 25 µM,"1 h, read-out: PLpro activity after preincubation, inhibitor 25 uM, preincubation 60 min",12.5%
same,remaining activity at 2 µM,"85 min, read-out: PLpro activity after preincubation, inhibitor 2 uM, preincubation 85 min",29.8%
same,remaining activity at 2 µM,"110 min, read-out: PLpro activity after preincubation, inhibitor 2 uM, preincubation 110 min",18%
same,remaining activity at 1 µM,"[…], read-out: PLpro activity after preincubation, inhibitor 1 uM, preincubation 15 min",93.3%
same,remaining activity at 1 µM,"[…], read-out: PLpro activity after preincubation, inhibitor 1 uM, preincubation 45 min",79.9%
same,remaining activity at 1 µM,"[…], read-out: PLpro activity after preincubation, inhibitor 1 uM, preincubation 90 min",54%

# Reference: PMC10044120, “Potent and selective covalent inhibition of the papain-like protease from SARS-CoV-2” (Nature Communications, 2023)
